Laboratory results taken from patent US20160296644A1, “ANTICANCER DRUG, COMPRISING A COPPER RADIOISOTOPE” (priority 2013, published 2016).

What was measured:
[1] = system: DNA of the cancer cell; experiment: Laboratory experimental tests of Auger radioactive effect on cancer cells; conditions: dosage 1.5 Bq for each cell
Procedure: Said dosage is equal to a 1.5 Bq (Becquerel) for each cell, a quantity such that the therapeutic effectiveness of the drug is carried out through the expression of the toxicity thereof only inside the nucleus, achieving a true target therapy.

[2] = system: amyloid plaques; experiment: Use against Alzheimer's disease (radiotracer / therapeutic agent)
From the text: In fact, it is capable of binding to the amyloid plaques, the accumulation whereof within the nerve cells characterises the presence of the pathology, and catalyses its formation process. By crossing the blood-brain barrier, the deposit of the subject drug is suitably identified inside said amyloid plaques, providing a diagnostic feedback beyond all doubts.
In fact, the drug, by binding to said amyloid plaques, initially stabilises the growth thereof, to then slower it by braking such “drug-plaque” bonds.

[3] = system: solid tumours, neuroendocrine tumours, melanomas, leukaemias and lymphomas; experiment: Therapeutic effectiveness in cancer pathologies; conditions: solid tumours (pancreas, prostate, brain, breast, ovary, head-neck, oesophagus, stomach, intestines, colon, liver, lung)

With `[64Cu+2].[Cl-].[Cl-]` [64CuCl2, copper-64 chloride] the “Auger radioactive effect on DNA of the cancer cell” value [1] was “capable of destroying the DNA of the cancer cell”, the “volume of the tumoural lesions in solid tumours” value [1] was “reducing the volume of the tumoural lesions in solid tumours” and the “therapeutic agent against neuronal cells affected by the Alzheimer's disease” value ([2]; average dose 3,700 MBq) was “carries out the function of therapeutic agent”. The “radiotracer for the diagnosis of the Alzheimer's disease” value ([2]; average dose of 370 MBq) was “capable of acting as a radiotracer” and the “effectiveness as a therapeutic agent for cancer pathologies” value [3] was “effective”.
